Test results from US20240325274A1, “SUPRAMOLECULAR AMINO ACID OR SALT THEREOF, AND PREPARATION METHOD THEREFOR AND APPLICATION THEREOF” (SUZHOU OULIT BIOPHARM CO., LTD., priority 2021, published 2024).

Tests used:
[1] = pH, appearance and smell of neutralized aqueous solutions; assay type: physicochemical; conditions: 4% in water with 0.54% sodium hydroxide (Table 6)
Protocol: (§1) Three sets of color cosmetics (lipstick+eyeliner) were applied to the arms of 5 subjects with similar areas and thicknesses. The cosmetics were washed with the aqueous solutions in Table 6 (1 g of each) and then rinsed with tap water (the detergency was graded by the 5 subjects comprehensively).
The preparation procedures are as follows: Two 500-g beakers were weighed on an electronic balance, and the weights of the beakers were recorded; a proper amount of deionized water was weighed and added to the beakers according to the formula, and the beakers were heated to 75-80° C. in a water bath. The temperature of the water in the beaker was measured by a thermometer. […] At the start of the stirring, a proper amount of arginine was added to beaker (1) and a proper amount of 10% aqueous sodium hydroxide solution was added to beaker (2). The mixtures were stirred for 1 min. The temperature of the beakers (1) and (2) was reduced to 25° C. by running tap water. The evaporated water in the two beakers in the preparation process was compensated by cooled deionized water to 100% on an electronic balance. The pH of the products in the beaker (1) and (2) was measured, the appearance was observed, and the smell was confirmed.

[2] = Detergency evaluation: color cosmetics on arms of 5 subjects; design: key: 5 denotes the best; 3 denotes moderate; 1 denotes the worst; conditions: 1 g of 4% aqueous solution with 0.54% sodium hydroxide; graded by 5 subjects
Excerpt: as §1

[3] = Protocol: Two 100-g aliquots of bok choy pre-sprayed with pesticides methamidophos and acephate were taken. One was directly soaked in 1 L of clean water and detected for the pesticide residues, denoted as “before washing”. […] The procedures are as follows:
A 10% aqueous sodium hydroxide solution was added to neutralize the mixture to pH 6-7. The volume of the aqueous solution was brought to 100 mL. The second 100-g aliquot of bok choy pre-sprayed with pesticides methamidophos and acephate was shredded, soaked in 5 mL of the stock solution for 2 min, washed with 500 mL of clean water, and detected for the pesticide residues.

[4] = Qualitative household application test; conditions: 12% aqueous solution of sodium salt
Excerpt: For the surface of the electric rice cookers, especially the sticky bottoms, the greasy stains on the surface were wiped several times by using rags or paper towels soaked in the solutions and then wiped by using a clean cloth.

C. albicans (ATCC 10231) = conditions: 10 g in 100 mL neutralized with NaOH to pH 6-7
Protocol: (§2) A 10% aqueous sodium hydroxide solution was added to neutralize the mixture to pH 6-7. The volume of the aqueous solution was brought to 100 mL. Fruits pre-inoculated with common microorganisms such as Staphylococcus aureus, Escherichia coli, Pseudomonas aeruginosa, Candida albicans, and the like were soaked in 5 mL of the stock solution (the solution neutralized by sodium hydroxide) for a certain period of time, and washed with clean water. The microorganism residues on the fruits were determined.

S. aureus (ATCC 6538) = conditions: 10 g in 100 mL neutralized with NaOH to pH 6-7
Protocol: as §2

E. coli (8099) = test system: E. coli (8099)
Protocol: as §2

[5] = cloths soaked in 5 mL stock solution for 2 min, washed with water, aired
Protocol: A 10% aqueous sodium hydroxide solution was added to neutralize the mixture to pH 6-7. The volume of the aqueous solution was brought to 100 mL. Cotton cloths of 10 square centimeters with peculiar smell (smell, engine oil smell, odor, etc.) were soaked in 5 mL of stock solution for 2 min, taken out, washed with water, and dried by airing.

Row | Compound | Appearance [1] | pH value [1] | Detergency [2] | Acephate, Percentage removal, % ([3]; 2 min of treatment) | Methamidophos, Percentage removal, % ([3]; 2 min of treatment) | Methamidophos residue, After cleaning ([3]; bok choy soaked in 5 mL stock solution for 2 min, washed with 500 mL clean water, before washing 16.42 mg/kg) | Acephate residue, After cleaning ([3]; bok choy soaked in 5 mL stock solution for 2 min, washed with 500 mL clean water, before washing 37.57 mg/kg) | Detergency on surfaces of cooking benches and kitchen hoods [4] | Inhibition of C. albicans (ATCC 10231), % (after 5 minutes) (C. albicans (ATCC 10231)) | Inhibition of S. aureus (ATCC 6538), % (after 2 minutes) (S. aureus (ATCC 6538); after 2 minutes) | Inhibition of S. aureus (ATCC 6538), % (after 5 minutes) (S. aureus (ATCC 6538); after 5 minutes) | Inhibition of E. coli (8099), % (after 2 minutes) (E. coli (8099); after 2 minutes, 10 g in 100 mL neutralized with NaOH to pH 6-7, fruits soaked in 5 mL stock solution) | Inhibition of E. coli (8099), % (after 5 minutes) (E. coli (8099); after 5 minutes, 10 g in 100 mL neutralized with NaOH to pH 6-7) | Deodorization effect on cotton cloths [5]
1 | CCCCCCCCCCCC(=O)N[C@@H](C)C(=O)O [Comparative Example 1, N-lauroyl-L-alanine] | Transparent | 8.07 | 3 | – | – | – | – | – | – | – | – | – | – | –
2 | CCCCCCCCCCCC(=O)N[C@@H](C)C(=O)O [Comparative Example 2, N-lauroyl-L-alanine] | Transparent | 6.56 | 1 | – | – | – | – | – | – | – | – | – | – | –
3 | N-lauroyl-L-alanine supramolecule [Example 1] | – | – | 5 | 86.37% | 76.19% | 3.91 mg/kg | 5.12 mg/kg | excellent detergency | 100% | 100% | 100% | 98.5% | 100% | the smells on the cotton cloths were completely eliminated
